For one data set, the system named is PANC-1 and Fadu cells. Description: CellTiter-Glo viability, statements covering both cancer cell lines. Format: cell-based, human.
The subject of the next data set is PANC-1 cells. Description: CellTiter-Glo luminescent cell viability assay, PANC-1. The following applies: 72 h, mean ± SD, n = 2; for Cell Viability (% of Control) 2.8 µM / Cell Viability (% of Control) 8.3 µM / Cell Viability (% of Control) 25 µM: PANC-1.
The next data set relates to Fadu cells. Description: CellTiter-Glo luminescent cell viability assay, Fadu. The following applies: 72 h, 72 h, mean ± SD, n = 2; for Cell Viability (% of Control) 2.8 µM / Cell Viability (% of Control) 8.3 µM / Cell Viability (% of Control) 25 µM: Fadu.

Each structure is given as a SMILES string.

For `NCC#Cc1cccc(CN2C(=O)C3=C(CCN(Cc4cccc(-n5cc(-c6ccccc6)nn5)c4)C3)N3CCN=C23)c1` [4b], the viability at 25 µM in the data set on PANC-1 and Fadu cells (Homo sapiens, 25 µM, in either of the cancer cell lines, read-out: drop in viability at 25 µM) is 0 to 1%; with PANC-1 cells (Homo sapiens, PANC-1, 72 h, read-out: Cell Viability (% of Control) 25 µM, PANC-1, 25 µM, first-set screening), 0%; in the data set with Fadu cells (Homo sapiens, FaDu, read-out: Cell Viability (% of Control) 25 µM, Fadu, 25 µM, first-set screening), 0%. Besides, the viability at 2.8 µM in the data set on PANC-1 cells (Homo sapiens, PANC-1, 72 h, read-out: Cell Viability (% of Control) 2.8 µM, PANC-1, 2.8 µM, first-set screening) was 87 ± 5%; in the data set on Fadu cells (Homo sapiens, FaDu, read-out: Cell Viability (% of Control) 2.8 µM, Fadu, 2.8 µM, first-set screening), 76 ± 1%. The viability at 8.3 µM with PANC-1 cells (Homo sapiens, PANC-1, 72 h, read-out: Cell Viability (% of Control) 8.3 µM, PANC-1, 8.3 µM, first-set screening) came to 70%; with Fadu cells (Homo sapiens, FaDu, read-out: Cell Viability (% of Control) 8.3 µM, Fadu, 8.3 µM, first-set screening), 34 ± 3%.
For `NCC#Cc1cccc(CN2C(=O)C3=C(CCN(Cc4ccc(-n5cc(-[c-]6cccc6)nn5)cc4)C3)N3CCN=C23)c1.[Fe+2].c1cc[cH-]c1` [2a], the “eradication of cancer cells at 8.3 µM” value with PANC-1 and Fadu cells (8.3 µM, both PANC-1 and Fadu, first-set screening) was “practically complete eradication of both types of cancer cells”. Besides, the “Cell Viability (% of Control) 2.8 µM” value in the data set with PANC-1 cells (2.8 µM, first-set screening) is reported as 92 ± 2 % of Control; in the data set with PANC-1 cells (2.8 µM, second-set screening) it was 117 ± 4 % of Control; with Fadu cells (2.8 µM, first-set screening) it was 107 ± 5 % of Control; in the data set with Fadu cells (2.8 µM, second-set screening), 114 ± 8 % of Control. The “Cell Viability (% of Control) 8.3 µM” value in the data set with PANC-1 cells (8.3 µM, first-set screening) is reported as 0 ± 0 % of Control; in the data set with PANC-1 cells (8.3 µM, second-set screening), 92 ± 14 % of Control; in the data set with Fadu cells (8.3 µM, first-set screening), 3 ± 0 % of Control; with Fadu cells (8.3 µM, second-set screening) it was 56 ± 9 % of Control. Besides, the “Cell Viability (% of Control) 25 µM” value in the data set with PANC-1 cells (25 µM, first-set screening) was 0 ± 0 % of Control; in the data set on PANC-1 cells (25 µM, second-set screening) it was 0 ± 0 % of Control; in the data set on Fadu cells (25 µM, first-set screening), 0 ± 0 % of Control; with Fadu cells (25 µM, second-set screening), 0 ± 0 % of Control.

These data come from paper PMC11642016 (International Journal of Molecular Sciences, 2024).
